From patent publication US20100120679A1, “Targeting NBS1-ATM Interaction To Sensitize Cancer Cells To Radiotherapy And Chemotherapy” (SOUTHERN RESEARCH INSTITUTE, priority 2006, published 2010)
Peptide text beside a SMILES is read from it. * marks the point of attachment. Biotin = O=C1N[C@H]2[C@H](CS[C@H]2CCCCC(=O)*)N1

Experiments:
HeLa cells = experiment: Colony formation assay (radiosensitivity), HeLa
Description: Shown in A (HeLa), C (MO59J) and D (GM9607) are the susvival curves after indicated doses of radiation. Error bars represent +/−1 SEM, graphed are the mean of three independent experiments.
Colony formation assays: To determine the radiosensitivity, the colony forming assay was incorporated. Cells were harvested with 0.125% trypsin-0.05% EDTA, pelleted and re-suspended in 1 ml fresh media with a 22 g needle to disperse clumps prior to hemocytometer counting in trypan blue. Cells were then plated at limiting dilutions in […] and allowed to adhere overnight. Cultures were treated with PBS, R9, wtNIP, or scNIP for 1 hour, and irradiated (0-6Gy). Fresh peptides were added every four hours until 24 hours after IR, when the medium was replaced with peptide-free medium. Cultures were incubated for 10-12 days, harvested and stained with 0.5% crystal violet in methanol. Colony number was determined with a dissecting microscope. A population of >50 cells was counted as one colony, and the number of colonies was expressed as a percentage of the value for untreated mock irradiated control cells. The surviving curves were plotted by linear regression analyses and the D0 value represents the radiation dose that leads to 37% of survival. To determine the radiosensitizing potential of the peptides in comparison to other small molecule inhibitors, the sensitizing enhancement ratio (SER) was calculated based on the dose of radiation required to reduce survival to 37% in the presence of scNIP or wtNIP. The following formula was used: […]
Statistics: To establish statistical significance, Student's t-test was incorporated. The data were first fit to each experimental group over a dose range of 0-6Gy. Significant differences were established at p<0.05.
FIG. 6A depicts the survival curves for HeLa cells treated with R9, wtNIP, or scNIP over a dose range of 0 to 6 Gy.

[1] = test system: γ-H2AX foci in HeLa cells; experiment: IR-induced γ-H2AX focus formation, HeLa; type: cell-based, human
Text: Error bars represent +/−1 SD, graphed are the mean of three independent experiments.
wtNIP Inhibits IR-Induced γ-H2AX and NBS1 pSer343 Focus Formation: One of the earliest responses to IR-induced DNA damage is the formation of γ-H2AX foci, which requires functional ATM (Burma et al., 2001; Furuta et al., 2003). […] Immunofluorescence microscopy was used to detect the presence of γ-H2AX foci in mock-irradiated or irradiated cells in the presence of R9, wtNIP or scNIP. […] Therefore, IR-induced γ-H2AX focus formation can be inhibited by wt-NIP.

[2] = test system: GM9607 cells (defective ATM); experiment: Colony formation assay (radiosensitivity), GM9607; type: cell-based, human
Description: (§1) Colony number was determined with a dissecting microscope. […] The following formula was used: […]
(§2) To test this possibility, colonyforming assays were performed in cell lines with defective ATM (GM9607) or DNA-PKcs (M059J). […] Because GM9607 cells are ATM-deficient and have functional ATR and DNA-PKcs, these observations strongly indicate that wtNIP can specifically target ATM, but not ATR or DNA-PKcs, to achieve radiosensitization.

[3] = test system: M059J cells (defective DNA-PKcs); experiment: Colony formation assay (radiosensitivity), M059J; type: cell-based
Description: as §1, §2

With `CC(C)C[C@H](NC(=O)[C@H](CC(=O)O)NC(=O)[C@H](CC(=O)O)NC(=O)[C@H](C)NC(=O)[C@H](CC(C)C)NC(=O)[C@H](CO)NC(=O)[C@H](CCC(=O)O)NC(=O)[C@H](CCC(=O)O)NC(=O)[C@H](CCCCN)NC(=O)[C@H](CCCNC(=N)N)NC(=O)[C@H](CCCNC(=N)N)NC(=O)[C@H](CCCNC(=N)N)NC(=O)[C@H](CCCNC(=N)N)NC(=O)[C@H](CCCNC(=N)N)NC(=O)[C@H](CCCNC(=N)N)NC(=O)[C@H](CCCNC(=N)N)NC(=O)[C@H](CCCNC(=N)N)NC(=O)[C@H](CCCNC(=N)N)NC(=O)CCCC[C@@H]1SC[C@@H]2NC(=O)N[C@@H]21)C(=O)O` [wtNIP] (Biotin-RRRRRRRRRKEESLADDL-OH) the “D0 (mean lethal dose required for 37% survival)” value (HeLa cells) was 1.9, the “SER (dose required to reduce survival to 37%, scNIP versus wtNIP)” value (HeLa cells) was 1.58 and the sensitizer enhancement ratio (HeLa cells; 2Gy) was 1.66. For the same compound, the sensitizer enhancement ratio (HeLa cells; 4Gy) was 2.61, the sensitizer enhancement ratio (HeLa cells; 6Gy) was 3.12 and the “effect on radiosensitivity / IR-induced survival” value (HeLa cells; dose range 0 to 6 Gy) was “can significantly decrease IR-induced survival”. The “average number of γ-H2AX foci/nucleus” value ([1]; 10 μM peptide, 30 minutes after 6Gy IR) was 6.9 foci/nucleus, the “inhibition of γ-H2AX foci formation” value ([1]; 30 minutes after treatment with 6Gy IR) was “can inhibit γ-H2AX foci formation” and the change in radiosensitivity [2] was “no change in radiosensitivity”. For the same compound, the SER [3] was 1.83 and the change in radiosensitivity [3] was “increase in radiosensitivity”.
